Test results reported in PMC7400446, “Antimicrobial and Antifungal Activity of Rare Substituted 1,2,3-Thiaselenazoles and Corresponding Matched Pair 1,2,3-Dithiazoles” (Antibiotics, 2020).
Values after ≈ are worked out from the molar mass of the structure shown. “Also recorded” adds a separate entry of the source.

Key:
[1] = tested on: A. baumannii (Strain ATCC 19606, Type strain); test: Antibacterial assay, MIC; format: cell-based, Acinetobacter baumannii; details: for MIC: Acinetobacter baumannii, ATCC19606
Method: (§1) All bacteria, S. aureus (Strain ATCC 43300, MRSA), E. coli (Strain ATCC 25922, FDA control strain), K. pneumoniae (Strain ATCC 700603, MDR), A. baumannii (Strain ATCC 19606, Type strain), P. aeruginosa (Strain ATCC 27853, Quality control strain), were cultured in Cation-adjusted Mueller Hinton broth (CAMHB) at 37 °C overnight. A sample of each culture was then diluted 40-fold in fresh broth and incubated at 37 °C for 1.5–3 h. The resultant mid-log phase cultures were diluted (CFU/mL measured by OD600), then added to each well of the compound containing plates, giving a cell density of 5 × 10^5 CFU/mL and a total volume of 50 μL. All the plates were covered and incubated at 37 °C for 18 h without shaking.
(§2) Analysis: Inhibition of bacterial growth was determined measuring absorbance at 600 nm (OD600), using a Tecan M1000 Pro monochromator plate reader. The percentage of growth inhibition was calculated for each well, using the negative control (media only) and positive control (bacteria without inhibitors) on the same plate as references. […]

[2] = tested on: C. neoformans (Strain ATCC 208821, H99 Type strain); test: Antifungal assay, MIC; format: cell-based, Cryptococcus neoformans var. grubii; details: for MIC: Cryptococcus neoformans, ATCC208821
Method: (§3) Fungi strains C. albicans (Strain ATCC 90028, CLSI reference) and C. neoformans (Strain ATCC 208821, H99 Type strain), were cultured for 3 days on Yeast Extract-Peptone Dextrose (YPD) agar at 30 °C. A yeast suspension of 1 × 10^6 to 5 × 10^6 CFU/mL (as determined by OD530) was prepared from five colonies. The suspension was subsequently diluted and added to each well of the compound-containing plates giving a final cell density of fungi suspension of 2.5 × 10^3 CFU/mL and a total volume of 50 μL. All plates were covered and incubated at 35 °C for 36 h without shaking.
(§4) Analysis: Growth inhibition of C. albicans was determined measuring absorbance at 630 nm (OD630), while the growth inhibition of C. neoformans was determined measuring the difference in absorbance between 600 and 570 nm (OD600–570), after the addition of resazurin (0.001% final concentration) and incubation at 35 °C for 2 h. The absorbance was measured using a Biotek Multiflo Synergy HTX plate reader. In both cases, the percentage of growth inhibition was calculated for each well, using the negative control (media only) and positive control (fungi without inhibitors) on the same plate. […] Due to a higher variance in growth and inhibition, a lower threshold was applied to the data for C. neoformans.

[3] = Cytotoxicity assay (resazurin); format: cell-based; details: human; HEK293 cells, 20 h; unit not given in Table 1; read-out: CC50 (concentration at 50% cytotoxicity)
Method: (§5) HEK293 cells were counted manually in a Neubauer haemocytometer and then plated in the 384-well plates containing the compounds to give a density of 6000 cells/well in a final volume of 50 μL. DMEM supplemented with 10% FBS was used as growth media and the cells were incubated together with the compounds for 20 h at 37 °C in 5% CO2. Analysis: Cytotoxicity (or cell viability) was measured by fluorescence, ex: 560/10 nm, em: 590/10 nm (F560/590), after addition of 5 μL of 25 μgmL^−1 Resazurin (2.3 μgmL^−1 final concentration) and after incubation for further 3h at 37 °C in 5% CO2. The fluorescence intensity was measured using a Tecan M1000 Pro monochromator plate reader, using automatic gain calculation CC50 (concentration at 50% cytotoxicity) were calculated by curve fitting the inhibition values vs. log(concentration) using sigmoidal dose-response function, with variable fitting values for bottom, top and slope.

[4] = tested on: S. aureus (Strain ATCC 43300, MRSA); test: Antibacterial assay, MIC; format: cell-based, Staphylococcus aureus; details: for MIC: Staphylococcus aureus
Method: as §1, §2

[5] = tested on: C. albicans (Strain ATCC 90028, CLSI reference); test: Antifungal assay, MIC; format: cell-based, Candida albicans; details: for MIC: Candida albicans, ATCC90028
Method: as §3, §4

[6] = tested on: haemolytic activity; test: Haemolysis assay; format: cell-based; details: for Hc10 (concentration at 10% haemolytic activity): unit not given
Method: Hc10 (concentration at 10% haemolytic activity) was calculated by curve fitting the inhibition values vs. log(concentration) using a Sigmoidal dose-response function, with variable values for bottom, top and slope. The curve fitting is implemented using Pipeline Pilot’s dose-response component (giving similar results to similar tools such as GraphPad’s Prism and IDBS’s XlFit). […] DMax represents the highest percentage inhibition response for all concentrations tested. […] In addition, the value indicates if samples have been active, but curve fitting failed, mostly because only the single highest concentration was active.

[7] = tested on: HEK293 cells; test: Cytotoxicity assay (resazurin); format: cell-based
Method: as §5

[8] = tested on: Staphylococcus aureus, Acinetobacter baumannii, Candida albicans and Cryptococcus neoformans var. grubii; test: Initial antimicrobial screen (CO-ADD); format: cell-based; details: 10 μM; Active / Inactive
Source text: We then screened this series of 1,2,3-dithiazoles and 1,2,3-thiaselenazoles (8−15) against Staphylococcus aureus, Acinetobacter baumannii, Candida albicans and Cryptococcus neoformans var. grubii (Table 1) as part of the Community for Antimicrobial Drug Discovery (CO-ADD) initiative to develop new lead compounds [51]. These represent three distinct classes of microbes. Staphylococcus aureus (ATCC 43300) is a gram-positive bacterium derived from the super bug methicillin-resistant Staphylococcus aureus (MRSA). Acinetobacter baumannii (ATCC 19606) is a gram-negative bacterium hospital-derived infection with very few antibiotics that can treat this pathogen. Candida albicans (ATCC 90028) and Cryptococcus neoformans var. grubii (ATCC 208821) are both opportunistic fungi. These fungal pathogens are particularly dangerous for patients in hospital with immunodeficiencies, undergoing cancer chemotherapy and organ transplantation. These strains are considered by the World Health Organization (WHO) to be the highest priority to develop novel antibiotics for control of these bacteria and fungi. These are some of the most difficult to treat, particularly in a hospital setting where sepsis and pneumonia can quickly overcome the body’s immune system.
The 1,2,3-thiaselenazole analog (13) was potent on against three of the four pathogens with a similar profile to 9a without the activity on A. baumannii.
Antimicrobial screening was performed by CO-ADD (The Community for Antimicrobial Drug Discovery), Australia.
as §1, §2
as §3, with “shaking. […]” for “shaking.”

[9] = tested on: L1210; set-up: method as in PMID 19036587, PMID 23010140, PMID 28709952; details: cited from earlier work
[10] = tested on: K562; set-up: method as in PMID 19036587, PMID 23010140, PMID 28709952; details: cited from earlier work
[11] = ATCC 19606, MIC = lowest concentration with inhibition ≥80%
[12] = ATCC 208821, inhibition ≥70% (method)
[13] = ATCC 43300 (MRSA), MIC = lowest concentration with inhibition ≥80%

| Compound | MIC [1, 11] [µg/mL] | melting point [°C] | MIC [2, 12] [µg/mL] | CC50 at 20 h [3] [µg/mL] | MIC [4, 13] [µg/mL] | MIC ([5]; ATCC 90028, inhibition ≥80%) [µg/mL] | Hc10 (concentration at 10% haemolytic activity) [6] | Activity against C. albicans (in words) [5] | Initial Screen [8] | other results |
| --- | --- | --- | --- | --- | --- | --- | --- | --- | --- | --- |
| CCOC(=O)c1c2n[se]sc-2c(Cl)c1Cl [Compound 11c, Ethyl 5,6-dichlorocyclopenta[d][1,2,3]thiaselenazole-4-carboxylate] | > 32 | 188 to 190 | ≤ 0.25 | 7 (≈ 21.3 µM) | ≤ 0.25 | ≤ 0.25 | >32 |  |  | Haemolysis (in words) [6]: no haemolysis |
| Clc1c2n[se]sc-2c(Cl)c1Cl [Compound 11a, 4,5,6-Trichlorocyclopenta[d][1,2,3]thiaselenazole] | ≤ 0.25 | 117 to 119 | ≤ 0.25 | 0.52 (≈ 1.78 µM) | ≤ 0.25 | ≤ 0.25 | >32 | very potent |  | Activity against A. baumannii (in words) [1]: very potent; Activity against C. neoformans (in words) [2]: very potent; Activity against S. aureus (in words) [4]: very potent; Haemolysis (in words) [6]: no haemolysis |
| c1ccc(-c2c3ssnc-3c3ccccc23)cc1 [Compound 8a] |  |  |  |  |  |  |  | antifungal selective | Inactive | Activity against C. neoformans (in words) [2]: antifungal selective; Toxicity (in words) [7]: no toxicity or haemolysis; Haemolysis (in words) [6]: no toxicity or haemolysis |
| c1ccc2c(c1)N=C1SSN=C1O2 [Compound 14, Benzo[b][1,2,3]dithiazolo[5,4-e][1,4]oxazine] |  | 182 to 184 |  |  |  |  |  |  | not fruitful; also recorded: Inactive |  |
| N#Cc1c2nssc-2c(Cl)c1Cl [Compound 10b, 5,6-Dichlorocyclopenta[1,2,3]dithiazole-4-carbonitrile] | > 32 | 217 to 219 | ≤ 0.25 | > 32 | > 32 | ≤ 0.25 | >32 | maintained activity |  | Activity against A. baumannii (in words) [1]: removed all activity; Activity against C. neoformans (in words) [2]: maintained activity; Toxicity (in words) [7]: no toxicity; Activity against S. aureus (in words) [4]: removed all activity |
| N#Cc1ncn(CCc2ccccc2)c1/N=c1/ssnc1Cl [Compound 2] |  |  |  |  |  |  |  |  |  | IC50 [9]: 3000 nM; IC50 [10]: 4 µM |
| ClC1=C2S[Se]N=C2c2ccccc2C(Cl)=C1Cl [Compound 13, 4,5,6-Trichlorobenzo[6,7]cyclohepta[1,2-d][1,2,3]thiaselenazole] | > 32 | 144 to 145 | ≤ 0.25 | 0.48 (≈ 1.31 µM) | ≤ 0.25 | ≤ 0.25 | >32 |  |  |  |
| CCOC(=O)c1c2nssc-2c(Cl)c1Cl [Compound 10c, Ethyl 5,6-dichlorocyclopenta[d][1,2,3]dithiazole-4-carboxylate] | > 32 | 80 to 82 | > 32 | > 32 | > 32 | ≤ 0.25 | >32 | selective for C. albicans |  | Toxicity (in words) [7]: no toxicity |
| N#Cc1c2n[se]sc-2c(Cl)c1Cl [Compound 11b, 5,6-Dichlorocyclopenta[d][1,2,3]thiaselenazole-4-carbonitrile] | > 32 | 171 to 173 | ≤ 0.25 | > 32 | ≤ 0.25 | ≤ 0.25 | >32 |  |  | Activity against S. aureus (in words) [4]: potent |
| ClC1=C2SSN=C2c2ccccc2C(Cl)=C1Cl [Compound 12, 4,5,6-Trichlorobenzo[6,7]cyclohepta[1,2-d][1,2,3]dithiazole] |  | 119 to 121 |  |  |  |  |  |  | Inactive |  |
| Clc1c2nssc-2c(Cl)c1Cl [Compound 10a, 4,5,6-Trichlorocyclopenta[d][1,2,3]dithiazole] |  | 122 to 124 |  |  |  |  |  |  | Inactive |  |
| 8-Chloroindeno[1,2-d][1,2,3]thiaselenazole [Compound 9a] |  |  |  |  |  |  | >32 |  |  | Antibacterial A. baumannii MIC [1, 11]: >32 µg/mL; Antifungal C. neoformans MIC [2, 12]: ≤0.25 µg/mL; CC50 (concentration at 50% cytotoxicity) ([7]; 20 h, unit not given in Table 1): >32 µM; Antibacterial S. aureus MIC [4, 13]: >32 µg/mL; Antifungal C. albicans MIC ([5]; ATCC 90028, inhibition ≥80%): ≤0.25 µg/mL |
| c1ccc2c(c1)N=C1S[Se]N=C1O2 [Compound 15, Benzo[b][1,2,3]thiaselenazolo[5,4-e][1,4]oxazine] | > 32 | 178 to 180 | 2 | > 32 | > 32 | ≤ 0.25 | >32 | recovered some antifungal activity |  | Activity against C. neoformans (in words) [2]: recovered some antifungal activity; Toxicity (in words) [7]: no toxicity |
| 8-Phenylindeno[1,2-d][1,2,3]thiaselenazole [Compound 9b] |  |  |  |  |  |  |  |  | Inactive |  |
